The conditions of the data set: for aqueous solubility: pH 6.8.

Values after ≈ are worked out from the molar mass of the structure shown.

Consider `O=C(CCCc1nc2ccccc2[nH]1)N1CCCC1`, for which the MDR1-MDCK efflux ratio worked out at 17.5; the intrinsic clearance, human liver microsomes was at most 4.74 mL/min/kg; the intrinsic clearance, rat liver microsomes stood at 85 mL/min/kg; the aqueous solubility (as a rule, the dissolved amount per volume that the medium holds) came out at 35.8 µg/mL (≈ 139 µM).

With `CCOC(=O)c1cccnc1-c1cccc2ccnn12`, the MDR1-MDCK efflux ratio was determined as 0.687; the intrinsic clearance, human liver microsomes was at most 4.74 mL/min/kg; the intrinsic clearance, rat liver microsomes stood at 80.1 mL/min/kg; the aqueous solubility is 45.8 µg/mL (≈ 171 µM).

As for `Cc1cc(C)c(CC(=O)N2CC(CO)C2)c(C)c1`, the MDR1-MDCK efflux ratio amounted to 1.72; the intrinsic clearance, human liver microsomes turned out to be 4.99 mL/min/kg; the intrinsic clearance, rat liver microsomes was 15.6 mL/min/kg; the aqueous solubility is 46.3 µg/mL (≈ 187 µM).

For `COc1ccc(Cl)cc1N(CC(=O)Nc1ccccc1C(=O)NCc1ccccc1)S(C)(=O)=O`, the intrinsic clearance, human liver microsomes came out at 594 mL/min/kg and the intrinsic clearance, rat liver microsomes was determined as 1370 mL/min/kg.

Turning to `N#Cc1ccccc1-c1ccc(-c2nccn2-c2cccnc2)o1`, the MDR1-MDCK efflux ratio came out at 1.48; the intrinsic clearance, human liver microsomes stood at 87.9 mL/min/kg; the intrinsic clearance, rat liver microsomes came to 719 mL/min/kg; the aqueous solubility turned out to be 29.7 µg/mL (≈ 95.2 µM).

As for `COc1ccc(C)nc1-c1ccc(OC)c(OC)c1OC`, the MDR1-MDCK efflux ratio came out at 0.981; the intrinsic clearance, human liver microsomes is at most 4.74 mL/min/kg; the intrinsic clearance, rat liver microsomes worked out at 359 mL/min/kg.

With `CC(C)[C@H]1C(=O)N[C@H](CO)Cc2cc(NC(=O)/C=C/C=C/c3ccc(C(F)(F)F)cc3)ccc2N1C`, the MDR1-MDCK efflux ratio amounted to 55.9; the intrinsic clearance, human liver microsomes was found to be 497 mL/min/kg; the intrinsic clearance, rat liver microsomes amounted to 439 mL/min/kg.

Consider `Cc1nn(C)c2ncc(C(=O)Nc3ccc4c(c3)CCO4)cc12`, for which the MDR1-MDCK efflux ratio is 0.571; the intrinsic clearance, human liver microsomes came to 8.12 mL/min/kg; the intrinsic clearance, rat liver microsomes came to 48.2 mL/min/kg; the aqueous solubility was found to be 22.9 µg/mL (≈ 74.3 µM).

For the compound `N#CCn1c(C(=O)O)cc2ccccc21`, the aqueous solubility was determined as 41.5 µg/mL (≈ 207 µM).

With `O=C(Nc1nncs1)c1ccc(N2CCC3(CCCCC3)C2)nc1`, the MDR1-MDCK efflux ratio was 0.729 and the aqueous solubility was 0.66 µg/mL (≈ 1.92 µM).

Take `Cc1cc(-n2ccnc2)ccc1C(=O)O`: the MDR1-MDCK efflux ratio was 0.417; the intrinsic clearance, human liver microsomes was at most 4.74 mL/min/kg; the intrinsic clearance, rat liver microsomes was at most 10.7 mL/min/kg.

With `Cc1ccc2nc(CN(C)Cc3cccc(Cl)c3Cl)cc(=O)n2c1`, the MDR1-MDCK efflux ratio was determined as 0.617; the intrinsic clearance, human liver microsomes came out at 633 mL/min/kg; the intrinsic clearance, rat liver microsomes was determined as 4770 mL/min/kg.

In the case of `CCOc1cc2nn(CCC(C)(C)O)cc2cc1NC(=O)c1cccc(C(F)F)n1`, the MDR1-MDCK efflux ratio was 11; the fraction unbound, human plasma worked out at 0.0126; the fraction unbound, rat plasma was 0.0186; the intrinsic clearance, human liver microsomes was at most 4.74 mL/min/kg. Moreover, the intrinsic clearance, rat liver microsomes was at most 10.7 mL/min/kg and the aqueous solubility amounted to 3.55 µg/mL (≈ 8.48 µM).

For `O=C(C1CC1c1ccc(F)cc1)N1CCC(n2c(=O)[nH]c3ccccc32)CC1` (configuration not stated), the intrinsic clearance, human liver microsomes turned out to be 14.7 mL/min/kg; the intrinsic clearance, rat liver microsomes amounted to 233 mL/min/kg; the aqueous solubility amounted to 47.8 µg/mL (≈ 126 µM).

Take `O=c1[nH]c2cnccc2n1Cc1ccccc1`: the MDR1-MDCK efflux ratio amounted to 1.55; the intrinsic clearance, human liver microsomes is at most 4.74 mL/min/kg; the intrinsic clearance, rat liver microsomes was found to be 47.9 mL/min/kg; the aqueous solubility worked out at 31.5 µg/mL (≈ 140 µM).

In the case of `Cc1nn(C)c(C)c1C(=O)NCc1ccccc1`, the MDR1-MDCK efflux ratio was found to be 0.786; the intrinsic clearance, human liver microsomes was at most 4.74 mL/min/kg; the intrinsic clearance, rat liver microsomes was at most 10.7 mL/min/kg; the aqueous solubility was 54.7 µg/mL (≈ 225 µM).

Turning to `CCOc1ccccc1C(=O)N1CCC(c2nc(-c3ccc(OC)cc3)c(C(N)=O)[nH]2)CC1`, the MDR1-MDCK efflux ratio was found to be 47.7; the intrinsic clearance, human liver microsomes was 104 mL/min/kg; the intrinsic clearance, rat liver microsomes worked out at 237 mL/min/kg; the aqueous solubility was found to be 46.4 µg/mL (≈ 103 µM).

For `CCOc1c2c(c(OCC)c3ccccc13)C(=O)N(c1ccc(CC(=O)NS(=O)(=O)c3ccccc3)cc1)C2`, the MDR1-MDCK efflux ratio amounted to 2.9; the intrinsic clearance, human liver microsomes is at most 4.74 mL/min/kg; the intrinsic clearance, rat liver microsomes was determined as 17.3 mL/min/kg.

In the case of `CN1CCCn2c1cc(OCc1cc(F)c(Oc3ccc(C(F)(F)F)nc3)c(F)c1)nc2=O`, the MDR1-MDCK efflux ratio came to 12; the intrinsic clearance, human liver microsomes turned out to be 19.6 mL/min/kg; the intrinsic clearance, rat liver microsomes was found to be 126 mL/min/kg.

For the compound `Cc1ncsc1C(=O)N1C[C@@H]2CCCN(C(=O)c3scnc3C)[C@@H]2C1`, the MDR1-MDCK efflux ratio stood at 82; the intrinsic clearance, human liver microsomes was at most 4.74 mL/min/kg; the intrinsic clearance, rat liver microsomes is 11 mL/min/kg; the aqueous solubility was found to be 75.9 µg/mL (≈ 202 µM).

For the compound `CCCn1ncnc1-c1ccccc1SC`, the MDR1-MDCK efflux ratio amounted to 0.798; the intrinsic clearance, human liver microsomes turned out to be 82.5 mL/min/kg; the intrinsic clearance, rat liver microsomes was 765 mL/min/kg; the aqueous solubility stood at 19.9 µg/mL (≈ 85.2 µM).

As to `Cc1cccn(Cc2cccc(F)c2)c1=O`, the MDR1-MDCK efflux ratio amounted to 0.652; the intrinsic clearance, human liver microsomes is at most 4.74 mL/min/kg; the intrinsic clearance, rat liver microsomes was 72 mL/min/kg; the aqueous solubility came out at 23.9 µg/mL (≈ 110 µM).

Regarding `CCC1(O)CN(c2ncccc2C#N)C1`, the MDR1-MDCK efflux ratio is 0.523; the intrinsic clearance, human liver microsomes is at most 4.74 mL/min/kg; the intrinsic clearance, rat liver microsomes is 25 mL/min/kg; the aqueous solubility worked out at 22.7 µg/mL (≈ 112 µM).

In turn, `CC(=O)N(CC(N)=O)c1ccc(C)cc1` came in with an intrinsic clearance, human liver microsomes of 5.04 mL/min/kg and an intrinsic clearance, rat liver microsomes of 42.8 mL/min/kg.

Consider `O=c1c2cccnc2ncn1[C@H]1CCN(Cc2ccccc2)C1`, for which the MDR1-MDCK efflux ratio is 0.776; the intrinsic clearance, human liver microsomes is at most 4.74 mL/min/kg; the intrinsic clearance, rat liver microsomes amounted to 162 mL/min/kg.

In turn, `COc1ccc(-c2onc(C)c2-c2cnn(-c3ccccc3)c2)c(O)c1` showed an aqueous solubility of 0.25 µg/mL (≈ 0.72 µM).

With `Cn1cc(Nc2nc(N)nc(-c3cccc(-n4ccc5cc(C6CC6)cc(F)c5c4=O)c3CO)n2)cn1`, the MDR1-MDCK efflux ratio was 24.3; the fraction unbound, human plasma was 0.0709; the fraction unbound, rat plasma was 0.0381; the intrinsic clearance, human liver microsomes is at most 4.74 mL/min/kg. This compound came in with an intrinsic clearance, rat liver microsomes of 37.9 mL/min/kg.

`O=C(NCCc1ccccc1)c1cnccn1`: the MDR1-MDCK efflux ratio stood at 0.607; the intrinsic clearance, human liver microsomes is 13.5 mL/min/kg; the intrinsic clearance, rat liver microsomes came to 29 mL/min/kg; the aqueous solubility was found to be 59.1 µg/mL (≈ 260 µM).

`Cn1cc(-c2cn3nccc3c(-c3cnn([C@]4(CC#N)C[C@@H](C#N)C4)c3)n2)cn1`: the MDR1-MDCK efflux ratio amounted to 53.3; the fraction unbound, human plasma turned out to be 0.363; the fraction unbound, rat plasma amounted to 0.231; the intrinsic clearance, human liver microsomes is at most 4.74 mL/min/kg. The compound also showed an intrinsic clearance, rat liver microsomes of at most 10.7 mL/min/kg and an aqueous solubility of 2.2 µg/mL (≈ 5.74 µM).

Compound `Clc1ccc2oc(/C=C/c3csnn3)nc2c1` gave an aqueous solubility of 0.19 µg/mL (≈ 0.72 µM).

For `O=C(NC1CCCCC1)C1=CCN(C(=O)C2CC2)C1`, the MDR1-MDCK efflux ratio was found to be 2.4; the intrinsic clearance, human liver microsomes is at most 4.74 mL/min/kg; the intrinsic clearance, rat liver microsomes is 29.8 mL/min/kg.

On to `Cc1nc(C2CCN(Cc3ccc(C(F)(F)F)cc3)CC2)n[nH]1`, for which the intrinsic clearance, human liver microsomes is 6 mL/min/kg and the intrinsic clearance, rat liver microsomes was 14.1 mL/min/kg.

Source of the values: the Biogen ADME set (Fang et al. 2023).
